Test results as given in the NIST ThermoML archive (doi:10.1016/j.jct.2004.07.024).
Numbers after ± are expanded uncertainties.

Key:
[1] = refractive index (Na D-line) (dimensionless); settings: 293.15 K; 101.33 kPa; Liquid; Standard Abbe refractometry
[2] = 298.15 K; 101.33 kPa; Liquid

SMILES | refractive index [1] | mass density [2] [kg/m3]
c1ccccc1 [benzene] | 1.5009 ± 0.0004 | 873.56 ± 0.35
C[S+](C)[O-] [dimethyl sulfoxide] | 1.4785 ± 0.0004 | 1095.62 ± 0.32
Cc1ccccc1 [toluene] | 1.4965 ± 0.0006 | 862.14 ± 0.94

Results, then the compound that gave them:

refractive index [1] | mass density [2] [kg/m3] | SMILES
1.4962 ± 0.0005 | 862.44 ± 0.55 | CCc1ccccc1 [ethylbenzene]
1.546 ± 0.0005 | 901.51 ± 0.54 | C=Cc1ccccc1 [styrene]
